The source of these data is ChEMBL document CHEMBL1201862, “PubChem BioAssay data set” (2004).

Common to all, as to test: NCI anticancer screen, dose series, 48 h
The subject of assay [1] is SF-539.
Assay [2] has as its system KM-20L2.
Assay [3] concerns MOLT-4.
In assay [4] the test system is OVCAR-4.
Assay [5] relates to HCT-116.
In assay [6] the test system is SK-MEL-5.
Assay [7] deals with SR.
Assay [8] concerns CCRF-CEM.
Assay [9] concerns SNB-78.
For assay [10], the system named is SF-295.
Assay [11] deals with SF-268.
Assay [12] relates to UACC-257.
The subject of assay [13] is DMS-114.
Assay [14] concerns NCI-H226.
Assay [15] has as its system KM12.
The subject of assay [16] is DMS-273.
The subject of assay [17] is SW-620.
Assay [18] has as its system TK-10.
Assay [19] has as its system DU-145.
Assay [20] deals with PC-3.

Molecules are shown by their SMILES.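 These data come from cells grown in 96-well plates and exposed to compound for 48 hours at five concentrations. The concentration for 50% growth inhibition is given as GI50.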 Calls of active or inactive are those of the source. No stated cut-off is given here; in the data, active = GI50 up to about 1.1 µM and inactive = higher.

Take `CC12CCC([C@H](N3CCOCC3)/C1=N\OCCN1CCCC1)C2(C)C` (some centres not stated): the GI50 in assay [1], in assay [2], in [3], in [4], in [5] and in assay [6] was > 100 µM (inactive) each time. Further, the GI50 in [7], in assay [8], in assay [9], in assay [10], in assay [11] and in assay [12] was > 100 µM (inactive) each time. Further, the GI50 is 71.9 µM (inactive) in assay [13]; > 100 µM (inactive) in assay [14]; > 100 µM (inactive) in assay [15]; > 100 µM (inactive) in assay [16]; > 100 µM (inactive) in [17]; > 100 µM (inactive) in [18].

Regarding `CN(C)P(=O)(/C(N)=N/Nc1ccc([N+](=O)[O-])cc1)N(C)C`, the GI50 in assay [1] is > 100 µM (inactive); in assay [2] it was > 100 µM (inactive); in assay [3] it was > 100 µM (inactive); in assay [4], 85.1 µM (inactive); in [5], > 100 µM (inactive); in [6], > 100 µM (inactive). The GI50 in assay [7] is > 100 µM (inactive); in [8], > 100 µM (inactive); in assay [9], > 100 µM (inactive); in [11], > 100 µM (inactive); in assay [12] it was > 100 µM (inactive); in assay [13], 61.7 µM (inactive). In addition, the GI50 in assay [14], in assay [15], in assay [16], in [17] and in assay [18] was > 100 µM (inactive) throughout.

For the compound `CC1=Nc2ccccc2S(=O)(=O)N1`, the GI50 in assay [1], in assay [2], in assay [3], in assay [4], in assay [5] and in assay [6] was > 100 µM (inactive) in each case. In addition, the GI50 in assay [7], in [8], in [9], in assay [10], in assay [11] and in [12] was > 100 µM (inactive) each time. For the same compound, the GI50 in assay [13], in [14], in assay [15], in assay [16], in [17] and in assay [18] was > 100 µM (inactive) throughout.

For the compound `O=C(c1ccc(Cl)cc1)N(C(=S)N1CCN(c2ccccn2)CC1)c1ccccc1`, the GI50 is > 100 µM (inactive) in [1]; > 100 µM (inactive) in assay [2]; 43.6 µM (inactive) in assay [3]; > 100 µM (inactive) in assay [4]; 97.5 µM (inactive) in [5]; 39.6 µM (inactive) in [6]. Also, the GI50 in assay [7] was 39.3 µM (inactive); in assay [8] it was > 100 µM (inactive); in assay [9] it was > 100 µM (inactive); in assay [10], 99.3 µM (inactive); in assay [11] it was > 100 µM (inactive); in [12], > 100 µM (inactive). Moreover, the GI50 was 42.5 µM (inactive) in [13]; 24.9 µM (inactive) in assay [14]; > 100 µM (inactive) in [15]; 78.3 µM (inactive) in [16]; > 100 µM (inactive) in assay [17]; > 100 µM (inactive) in assay [18].

With `c1ccc(CN2CCCCC(Sc3ccccc3)CC2)cc1` (configuration not stated), the GI50 was 29.8 µM (inactive) in assay [1]; 26.4 µM (inactive) in [2]; 20.8 µM (inactive) in assay [3]; 46.7 µM (inactive) in assay [4]; 27.2 µM (inactive) in assay [5]; 18.7 µM (inactive) in assay [6]. Moreover, the GI50 is 17.8 µM (inactive) in [7]; 19.2 µM (inactive) in [8]; 27.2 µM (inactive) in [9]; 40.5 µM (inactive) in assay [10]; > 100 µM (inactive) in assay [11]; > 100 µM (inactive) in assay [12]. Further, the GI50 is 22.4 µM (inactive) in assay [13]; 32.1 µM (inactive) in assay [14]; > 100 µM (inactive) in [15]; 12.6 µM (inactive) in assay [16]; 1.53 µM (inactive) in [17]; 58.7 µM (inactive) in assay [18].

As for `N=C1NC2(O)C(=O)c3ccccc3C2(O)N1` (configuration not stated), the GI50 in assay [1], in assay [2], in [3], in assay [4], in assay [5] and in [6] was > 100 µM (inactive) in each case. Also, the GI50 in assay [7], in assay [8], in [9], in [10], in assay [11] and in assay [12] was > 100 µM (inactive) each time. For the same compound, the GI50 in assay [13], in [14], in [15], in [16], in assay [17] and in assay [18] was > 100 µM (inactive) throughout.

`CC12C=CC(=O)C=C1CCC1C3CCC(O)(C(=O)CO)C3(C)CC(O)C12F` (configuration not stated): the GI50 in [1], in [2], in assay [19], in [3], in [4] and in assay [5] was > 100 µM (inactive) in each case. In addition, the GI50 in [6] was > 100 µM (inactive); in [7], > 100 µM (inactive); in assay [8], 0.536 µM (active); in [9] it was > 100 µM (inactive); in [10] it was > 100 µM (inactive); in assay [11] it was > 100 µM (inactive). The GI50 in assay [12], in assay [13], in assay [14], in assay [15], in [16] and in assay [17] was > 100 µM (inactive) each time. The GI50 in [20] and in assay [18] was > 100 µM (inactive) throughout.
